We go through ten compounds from ChEMBL document CHEMBL1201862, “PubChem BioAssay data set” (2004).

Each structure is given as a SMILES string.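 Following 48 hours of exposure in 96-well plates, responses at five concentrations were used to interpolate endpoints linearly. At the GI50, growth is halved.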 The source made the active and inactive calls. Cut-off read from the data, not from the text of the source: active = GI50 up to about 1.1 µM and inactive = higher.

Among the test systems are HCC 2998; HOP-92; A498; 786-0; SR; OVCAR-3; NCI/ADR-RES; HCT-116; UACC-257; HL-60; NCI-H522; MOLT-4; T47D; CCRF-CEM; DU-145; EKVX; SNB-19; RPMI-8226; HOP-62; SF-268.
What all share (test): NCI anticancer screen, dose series, 48 h

On to `CC1CCC2(CC1)N=C1CCC(C)CC1C1(CCC(C)CC1)N2` (stereo not given), for which the GI50 in the experiment with HCC 2998 was 69 µM (inactive); in the experiment with HOP-92, > 100 µM (inactive); with A498 it was > 100 µM (inactive); in the experiment with 786-0 it was > 100 µM (inactive); with SR, 50.8 µM (inactive); in the experiment on OVCAR-3, > 100 µM (inactive). For the same compound, the GI50 with NCI/ADR-RES is > 100 µM (inactive); with HCT-116, 36 µM (inactive); with UACC-257, 83.6 µM (inactive); with HL-60 it was 43.8 µM (inactive); with NCI-H522 it was 69.8 µM (inactive); in the experiment on MOLT-4 it was 25.9 µM (inactive). For the same compound, the GI50 in the experiment on T47D was 67.3 µM (inactive); in the experiment on CCRF-CEM, 24.3 µM (inactive); with DU-145, > 100 µM (inactive); with EKVX, > 10 µM (inactive); in the experiment with SNB-19, > 100 µM (inactive); in the experiment on RPMI-8226 it was 82 µM (inactive).

For the compound `CC[C@@H]1CC[C@@H]2[C@H](CC[C@]3(C)[C@@H](OS(=O)(=O)c4ccc(C)cc4)CC[C@@H]23)[C@H]1CO`, the GI50 with HOP-62, in the experiment with HCC 2998, with HOP-92, in the experiment on A498, with 786-0 and in the experiment with SR was > 100 µM (inactive) each time. In addition, the GI50 was > 100 µM (inactive) in the experiment on OVCAR-3; > 100 µM (inactive) in the experiment with NCI/ADR-RES; > 100 µM (inactive) in the experiment on HCT-116; 80.2 µM (inactive) in the experiment on UACC-257; 17.8 µM (inactive) with HL-60; > 100 µM (inactive) in the experiment with NCI-H522. Moreover, the GI50 was > 100 µM (inactive) with MOLT-4; 29.2 µM (inactive) in the experiment with T47D; > 100 µM (inactive) in the experiment with CCRF-CEM; > 100 µM (inactive) with DU-145; 12.2 µM (inactive) in the experiment on EKVX; > 100 µM (inactive) with SNB-19. The GI50 in the experiment with SF-268 was > 100 µM (inactive); with RPMI-8226, 17 µM (inactive).

For the compound `O=CC1OC(=O)c2cc(O)c(O)c(O)c2-c2c(cc(O)c(O)c2O)C(=O)OC1C1OC(=O)c2cc(O)c(O)c(O)c2-c2c(O)c(O)c3oc(=O)c4c(c(O)c(O)c5oc(=O)c2c3c54)-c2c(cc(O)c(O)c2O)C(=O)OCC1O` (stereo not given), the GI50 in the experiment with HOP-62 was 44.3 µM (inactive); in the experiment on HCC 2998 it was 33.4 µM (inactive); in the experiment with HOP-92 it was 16.6 µM (inactive); in the experiment on A498, 5.94 µM (inactive); in the experiment with 786-0, 18.7 µM (inactive); in the experiment with SR it was 39.7 µM (inactive). Besides, the GI50 in the experiment on OVCAR-3 is 39.7 µM (inactive); in the experiment with NCI/ADR-RES it was 36.8 µM (inactive); in the experiment with HCT-116 it was 16.9 µM (inactive); with UACC-257 it was 46.2 µM (inactive); with HL-60, 20.9 µM (inactive); in the experiment on NCI-H522, 18.2 µM (inactive). Besides, the GI50 is 26.1 µM (inactive) in the experiment on MOLT-4; 43.1 µM (inactive) in the experiment with T47D; 24.3 µM (inactive) in the experiment with CCRF-CEM; 50.6 µM (inactive) in the experiment on DU-145; 16.9 µM (inactive) with EKVX; 72.3 µM (inactive) with SNB-19. Further, the GI50 is 56.9 µM (inactive) in the experiment on SF-268 and 57.8 µM (inactive) in the experiment with RPMI-8226.

As for `COc1ccccc1N1C(=O)/C(=C\c2cccc(Oc3ccccc3)c2)SC1c1ccccc1` (stereo not given), the GI50 in the experiment with HOP-62 is 73.3 µM (inactive); with HCC 2998, 25.7 µM (inactive); in the experiment on HOP-92, 21.1 µM (inactive); in the experiment on A498, > 100 µM (inactive); in the experiment with 786-0 it was 39.2 µM (inactive); in the experiment with SR it was 19.6 µM (inactive). Moreover, the GI50 was 27.7 µM (inactive) with OVCAR-3; 59.6 µM (inactive) in the experiment with NCI/ADR-RES; 16.5 µM (inactive) with HCT-116; 31.3 µM (inactive) with UACC-257; < 0.01 µM (active) with HL-60; 24.1 µM (inactive) in the experiment on NCI-H522. Besides, the GI50 in the experiment on MOLT-4 was 31 µM (inactive); with T47D it was 27.2 µM (inactive); in the experiment on DU-145, 57.5 µM (inactive); in the experiment with EKVX, 15.9 µM (inactive); in the experiment with SNB-19, 31 µM (inactive); in the experiment with SF-268, 38 µM (inactive). Also, the GI50 in the experiment with RPMI-8226 was 24.6 µM (inactive).

For `O=C(NCCCCCCCCNC(=O)c1cc(-c2ccccc2)nc2ccccc12)c1cc(-c2ccccc2)nc2ccccc12`, the GI50 is 38.8 µM (inactive) in the experiment on HOP-62; > 100 µM (inactive) in the experiment with HOP-92; > 100 µM (inactive) in the experiment on A498; 41.7 µM (inactive) in the experiment on 786-0; > 100 µM (inactive) in the experiment with SR; > 100 µM (inactive) with OVCAR-3. Further, the GI50 in the experiment with NCI/ADR-RES is > 100 µM (inactive); in the experiment with HCT-116 it was > 100 µM (inactive); in the experiment with UACC-257, > 100 µM (inactive); in the experiment with HL-60, > 100 µM (inactive); with NCI-H522, 87.7 µM (inactive); in the experiment with MOLT-4, > 100 µM (inactive). The GI50 in the experiment with T47D was > 100 µM (inactive); in the experiment on CCRF-CEM, > 100 µM (inactive); in the experiment with DU-145 it was > 100 µM (inactive); with EKVX, > 100 µM (inactive); with SNB-19, 64.9 µM (inactive); in the experiment on SF-268, 68.9 µM (inactive). The GI50 in the experiment on RPMI-8226 is > 100 µM (inactive).

For `COC(=O)c1c2c(c3[nH]c4ccccc4c3c1C(=O)OC)C(=O)C1=C(C2=O)C2(Cl)C(Cl)C(Cl)C1(Cl)C2(Cl)Cl` (stereo not given), the GI50 in the experiment with HOP-62 was 3.76 µM (inactive); with HCC 2998, 2.91 µM (inactive); with HOP-92, 1.77 µM (inactive); in the experiment with A498, 0.432 µM (active); in the experiment on 786-0 it was 2.68 µM (inactive); in the experiment with SR it was 0.489 µM (active). For the same compound, the GI50 in the experiment on OVCAR-3 was 2.33 µM (inactive); in the experiment with NCI/ADR-RES, 2.62 µM (inactive); in the experiment with HCT-116 it was 2.02 µM (inactive); in the experiment with HL-60 it was 2.29 µM (inactive); in the experiment on NCI-H522 it was 1.38 µM (inactive); in the experiment on MOLT-4, 1.17 µM (inactive). The GI50 in the experiment on T47D was 1.35 µM (inactive); with CCRF-CEM, 1.89 µM (inactive); in the experiment with DU-145, 2.07 µM (inactive); in the experiment on EKVX it was 3.92 µM (inactive); with SNB-19, 3.4 µM (inactive); with SF-268, 0.436 µM (active). In addition, in the experiment on RPMI-8226, the GI50 was 1.19 µM (inactive).

In the case of `CSC(=S)CC(O)[C@@H]1CC2c3ccccc3C1c1ccccc12` (stereo not given in full), the GI50 was 15.7 µM (inactive) with HOP-62; 12.8 µM (inactive) with HCC 2998; 17.4 µM (inactive) in the experiment with HOP-92; 20.7 µM (inactive) in the experiment on A498; 18 µM (inactive) in the experiment with 786-0; 3.46 µM (inactive) in the experiment with SR. The GI50 is 8.51 µM (inactive) with OVCAR-3; 12.6 µM (inactive) in the experiment with NCI/ADR-RES; 8.11 µM (inactive) in the experiment on HCT-116; 2.54 µM (inactive) in the experiment on HL-60; 2.82 µM (inactive) in the experiment with NCI-H522; 1.49 µM (inactive) in the experiment with MOLT-4. Moreover, the GI50 in the experiment with T47D was 5.5 µM (inactive); in the experiment on CCRF-CEM, 1.95 µM (inactive); in the experiment on DU-145 it was 15.2 µM (inactive); in the experiment with SNB-19, 11.2 µM (inactive); in the experiment on SF-268, 15.4 µM (inactive); in the experiment with RPMI-8226, 3.11 µM (inactive).

Regarding `COC(=O)C1(Cc2ccc3c(c2)CCC3)Cc2ccc3c(c2C1)CCC3` (stereo not given), the GI50 with HOP-62 is 30.1 µM (inactive); in the experiment with HCC 2998, 34.5 µM (inactive); in the experiment on HOP-92, 18.7 µM (inactive); in the experiment with A498, 22.3 µM (inactive); in the experiment with 786-0, 24.5 µM (inactive); in the experiment with SR, > 10 µM (inactive). In addition, the GI50 with OVCAR-3 was 20.3 µM (inactive); in the experiment on NCI/ADR-RES, 20.6 µM (inactive); in the experiment with HCT-116 it was 18.1 µM (inactive); in the experiment on UACC-257, 5.61 µM (inactive); with HL-60, 23.4 µM (inactive); in the experiment on NCI-H522 it was 18.4 µM (inactive). Moreover, the GI50 with MOLT-4 is 43.3 µM (inactive); in the experiment with T47D, 1.47 µM (inactive); in the experiment on CCRF-CEM, 70.6 µM (inactive); in the experiment on DU-145, 24.8 µM (inactive); in the experiment on EKVX, 31.3 µM (inactive); in the experiment with SF-268, 44.4 µM (inactive). Also, the GI50 with RPMI-8226 is 19.4 µM (inactive).

On to `Cn1cc(S(=O)(=O)NC(=O)Nc2ccc(Cl)cc2)c(=O)c2ccc(F)cc21`, for which the GI50 in the experiment with HOP-62, with HCC 2998, in the experiment with HOP-92, in the experiment on A498, in the experiment with 786-0 and in the experiment with SR was > 100 µM (inactive) each time. Further, the GI50 was > 100 µM (inactive) in the experiment with NCI/ADR-RES; > 100 µM (inactive) with HCT-116; > 100 µM (inactive) with UACC-257; > 100 µM (inactive) in the experiment on HL-60; 32 µM (inactive) with NCI-H522; > 100 µM (inactive) with MOLT-4. In addition, the GI50 with T47D, with CCRF-CEM, in the experiment on DU-145, in the experiment on EKVX, in the experiment with SNB-19 and in the experiment with SF-268 was > 100 µM (inactive) in each case. For the same compound, in the experiment with RPMI-8226, the GI50 is > 100 µM (inactive).

In the case of `c1ccc(-c2cc(-c3cccs3)c(-c3cccs3)s2)cc1`, the GI50 in the experiment on HOP-62 was > 100 µM (inactive); with HCC 2998, 25 µM (inactive); with HOP-92, > 100 µM (inactive); with A498, 80.2 µM (inactive); in the experiment with 786-0, 50 µM (inactive); with SR, 18.9 µM (inactive). Besides, the GI50 with OVCAR-3 was 56.2 µM (inactive); with NCI/ADR-RES it was 41.4 µM (inactive); in the experiment on HCT-116, 19.6 µM (inactive); with UACC-257, 56.8 µM (inactive); in the experiment with HL-60, 25.5 µM (inactive); in the experiment with NCI-H522 it was 26.5 µM (inactive). Also, the GI50 with MOLT-4 is 21.2 µM (inactive); with T47D, 4.5 µM (inactive); with CCRF-CEM, 23.7 µM (inactive); in the experiment on DU-145 it was 64 µM (inactive); with EKVX, 81.8 µM (inactive); in the experiment on SF-268, > 100 µM (inactive). Further, the GI50 with RPMI-8226 was 31.8 µM (inactive).
